# Test results reported in US20220281841A1, “ETHYNYLHETEROCYCLES AS RHO-ASSOCIATED COILED-COIL KINASE (ROCK) INHIBITORS” (Angion Biomedica Corp., priority 2019, published 2022).
# Where a name gives a salt, the structure may show the parent alone.
# Tests used:
# ROCK1 = molecular target: T1, ROCK1 (Homo sapiens, UniProt Q13464); assay: ROCK1 kinase binding affinity, DiscoverX KINOMEscan KdELECT; conditions: equilibrium dissociation constant, 11-point 3-fold dilution series
# T1 construct: purchased DiscoverX (KINOMEscan KdELECT service); host or cells: E. coli BL21-derived (T7 phage) or HEK-293
# Protocol: (§1) 1. ROCK1 and ROCK2 kinase assays: The ROCK1 and ROCK2 kinase binding affinities of compounds in this invention were determined by DiscoverX's KINOMEscan™ KdELECT technology (https://www.discoverx.com/kinomescan-elect-kinase-screening-and-profiling-services): Kinase-tagged T7 phage strains were prepared in an E. coli host derived from the BL21 strain. E. coli were grown to log-phase and infected with T7 phage and incubated with shaking at 32° C. until lysis. The lysates were centrifuged and filtered to remove cell debris. The remaining kinases were produced in HEK-293 cells and subsequently tagged with DNA for qPCR detection. Streptavidin-coated magnetic beads were treated with biotinylated small molecule ligands for 30 minutes at room temperature to generate affinity resins for kinase assays. The liganded beads were blocked with excess biotin and washed with blocking buffer (SeaBlock (Pierce), 1% BSA, 0.05% Tween 20, 1 mM DTT) to remove unbound ligand and to reduce nonspecific binding. […] Test compounds were prepared as 111X stocks in 100% DMSO. Kds were determined using an 11-point 3-fold compound dilution series with three DMSO control points. […] The compounds were then diluted directly into the assays such that the final concentration of DMSO was 0.9%. All reactions performed in polypropylene 384-well plate. Each was a final volume of 0.02 ml. […] The kinase concentration in the eluates was measured by qPCR.
# ROCK2 = molecular target: T2, ROCK2 (Homo sapiens, UniProt O75116); assay: ROCK2 kinase binding affinity, DiscoverX KINOMEscan KdELECT; conditions: for ROCK 2 Selectivity: ROCK2 over ROCK1, from Kd values, N/C = not calculated; for Kd: equilibrium dissociation constant, 11-point 3-fold dilution series, read-out: Kd (μM) ROCK2
# T2 construct: purchased DiscoverX (KINOMEscan KdELECT service); host or cells: E. coli BL21-derived (T7 phage) or HEK-293
# Protocol: as §1
# T1 sequence (Q13464 whole entry): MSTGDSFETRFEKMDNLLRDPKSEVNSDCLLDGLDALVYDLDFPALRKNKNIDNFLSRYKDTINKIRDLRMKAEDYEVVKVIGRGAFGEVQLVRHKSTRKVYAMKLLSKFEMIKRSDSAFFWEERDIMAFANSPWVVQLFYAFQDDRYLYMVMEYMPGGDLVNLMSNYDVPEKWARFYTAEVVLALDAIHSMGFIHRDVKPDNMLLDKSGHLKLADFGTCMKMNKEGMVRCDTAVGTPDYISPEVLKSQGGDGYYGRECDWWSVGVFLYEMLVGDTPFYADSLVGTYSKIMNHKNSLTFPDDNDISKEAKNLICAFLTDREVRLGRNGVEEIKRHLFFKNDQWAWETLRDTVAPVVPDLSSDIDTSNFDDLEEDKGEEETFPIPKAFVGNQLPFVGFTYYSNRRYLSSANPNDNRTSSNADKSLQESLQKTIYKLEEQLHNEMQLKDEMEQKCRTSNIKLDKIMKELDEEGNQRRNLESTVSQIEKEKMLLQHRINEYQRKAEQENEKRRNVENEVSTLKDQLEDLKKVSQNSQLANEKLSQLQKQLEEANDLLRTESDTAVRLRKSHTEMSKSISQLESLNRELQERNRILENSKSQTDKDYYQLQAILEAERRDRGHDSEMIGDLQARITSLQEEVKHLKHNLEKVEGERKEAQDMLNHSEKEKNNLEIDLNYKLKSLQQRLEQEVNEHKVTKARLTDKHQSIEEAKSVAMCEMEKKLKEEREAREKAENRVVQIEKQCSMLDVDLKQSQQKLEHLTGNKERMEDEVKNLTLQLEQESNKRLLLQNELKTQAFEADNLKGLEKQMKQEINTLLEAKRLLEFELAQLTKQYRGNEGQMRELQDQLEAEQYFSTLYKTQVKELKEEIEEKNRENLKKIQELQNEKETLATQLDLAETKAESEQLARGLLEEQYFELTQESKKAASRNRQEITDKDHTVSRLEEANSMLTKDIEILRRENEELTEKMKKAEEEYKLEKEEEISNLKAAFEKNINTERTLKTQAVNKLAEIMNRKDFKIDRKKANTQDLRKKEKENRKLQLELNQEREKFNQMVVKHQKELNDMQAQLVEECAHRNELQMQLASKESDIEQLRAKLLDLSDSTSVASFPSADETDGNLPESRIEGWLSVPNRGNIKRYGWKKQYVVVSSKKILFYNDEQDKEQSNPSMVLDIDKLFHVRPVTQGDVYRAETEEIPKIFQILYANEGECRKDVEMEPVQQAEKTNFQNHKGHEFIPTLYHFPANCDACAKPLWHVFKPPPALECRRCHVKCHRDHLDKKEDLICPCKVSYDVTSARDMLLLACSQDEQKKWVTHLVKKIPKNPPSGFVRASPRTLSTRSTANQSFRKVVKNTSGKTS
# T2 sequence (O75116 whole entry): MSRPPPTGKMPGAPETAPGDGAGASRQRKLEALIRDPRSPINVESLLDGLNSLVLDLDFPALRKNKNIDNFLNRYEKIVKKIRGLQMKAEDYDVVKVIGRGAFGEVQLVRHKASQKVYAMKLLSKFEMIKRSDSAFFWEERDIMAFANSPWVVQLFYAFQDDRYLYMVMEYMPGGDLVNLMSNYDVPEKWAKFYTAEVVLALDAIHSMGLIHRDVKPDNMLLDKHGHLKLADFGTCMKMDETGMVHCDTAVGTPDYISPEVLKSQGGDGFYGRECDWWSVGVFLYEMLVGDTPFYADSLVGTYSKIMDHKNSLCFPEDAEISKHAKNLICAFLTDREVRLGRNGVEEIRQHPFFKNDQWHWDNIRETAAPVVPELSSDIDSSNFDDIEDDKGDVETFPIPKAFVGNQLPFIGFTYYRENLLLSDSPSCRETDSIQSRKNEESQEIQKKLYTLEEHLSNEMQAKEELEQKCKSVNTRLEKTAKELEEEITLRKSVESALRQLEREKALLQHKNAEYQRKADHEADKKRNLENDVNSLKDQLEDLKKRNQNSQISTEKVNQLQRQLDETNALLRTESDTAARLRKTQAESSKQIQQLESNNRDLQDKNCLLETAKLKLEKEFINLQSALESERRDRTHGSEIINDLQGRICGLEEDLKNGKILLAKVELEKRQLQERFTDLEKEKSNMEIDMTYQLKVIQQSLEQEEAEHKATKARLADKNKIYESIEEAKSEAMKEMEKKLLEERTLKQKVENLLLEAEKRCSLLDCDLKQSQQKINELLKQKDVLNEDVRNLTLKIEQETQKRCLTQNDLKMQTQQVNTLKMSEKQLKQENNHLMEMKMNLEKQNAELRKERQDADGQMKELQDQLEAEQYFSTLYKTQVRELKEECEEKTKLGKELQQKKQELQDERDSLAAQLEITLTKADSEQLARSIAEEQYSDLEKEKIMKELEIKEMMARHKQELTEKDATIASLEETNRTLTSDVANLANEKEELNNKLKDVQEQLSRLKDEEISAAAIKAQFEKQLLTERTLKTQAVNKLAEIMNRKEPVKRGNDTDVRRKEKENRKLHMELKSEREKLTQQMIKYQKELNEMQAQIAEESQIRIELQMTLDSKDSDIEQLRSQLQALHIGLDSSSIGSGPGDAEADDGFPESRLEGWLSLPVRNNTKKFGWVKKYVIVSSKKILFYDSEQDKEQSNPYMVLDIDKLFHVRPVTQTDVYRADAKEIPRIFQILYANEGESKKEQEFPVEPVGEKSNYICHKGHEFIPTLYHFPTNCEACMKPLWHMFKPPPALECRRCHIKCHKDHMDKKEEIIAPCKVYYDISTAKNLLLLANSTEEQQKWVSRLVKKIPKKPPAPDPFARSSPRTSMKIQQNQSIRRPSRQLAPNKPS
Compound,Kd (ROCK1),ROCK 2 Selectivity (ROCK2),Kd (ROCK2)
"CN(C)C(=O)COc1cc2c(cn1)CN(c1nccc(-c3nccc(C#Cc4ccc5[nH]ncc5c4)n3)n1)C2 [Ex. 38, 2-((2-(4-((1H-indazol-5-yl)ethynyl)-[2,4′-bipyrimidin]-2′-yl)-2,3-dihydro-1H-pyrrolo[3,4-c]pyridin-6-yl)oxy)-N,N-dimethylacetamide]",2.8 µM,4.37,0.64 µM
"COc1cc2c(cn1)CN(c1nccc(-c3nccc(C#Cc4ccc5[nH]ncc5c4)n3)n1)C2 [Ex. 15, 5-((2′-(6-Methoxy-1,3-dihydro-2H-pyrrolo[3,4-c]pyridin-2-yl)-[2,4′-bipyrimidin]-4-yl)ethynyl)-1H-indazole]",> 6 µM,>35,0.17 µM
"CNC(=O)COc1ccc2c(c1)CN(c1nccc(-c3nccc(C#Cc4ccc5[nH]ncc5c4)n3)n1)C2 [Ex. 44, 2-((2-(4-((1H-Indazol-5-yl)ethynyl)-[2,4′-bipyrimidin]-2′-yl)isoindolin-5-yl)oxy)-N-methylacetamide]",0.075 µM,32.6,0.0023 µM
"CN1CCN(c2ccc3c(c2)CN(c2nccc(-c4cc(F)cc(C#Cc5ccc6[nH]ncc6c5)c4)n2)C3)CC1 [Ex. 29, 5-((3-Fluoro-5-(2-(5-(4-methylpiperazin-1-yl)isoindolin-2-yl)pyrimidin-4-yl)phenyl)ethynyl)-1H-indazole]",> 30 µM,,> 30 µM
"FC(F)(F)c1ccc2c(c1)CN(c1nccc(-c3nccc(C#Cc4ccc5[nH]ncc5c4)n3)n1)C2 [Ex. 45, 5-((2′-(5-(Trifluoromethyl)isoindolin-2-yl)-[2,4′-bipyrimidin]-4-yl)ethynyl)-1H-indazole trifluoroacetate]",0.1 µM,90.9,0.0011 µM
"CN(C)CCOc1ccc2c(c1)CN(c1nccc(-c3nccc(C#Cc4ccc5[nH]ncc5c4)n3)n1)C2 [Ex. 39, 2-((2-(4-((1H-Indazol-5-yl)ethynyl)-[2,4′-bipyrimidin]-2′-yl)isoindolin-5-yl)oxy)-N,N-dimethylethanamine]",0.67 µM,25.8,0.026 µM
"CCCN1CCN(c2nccc(-c3nccc(C#Cc4ccc5[nH]ncc5c4)n3)n2)CC1 [Ex. 54, 5-((2′-(4-Propylpiperazin-1-yl)-[2,4′-bipyrimidin]-4-yl)ethynyl)-1H-indazole trifluoroacetate]",4.6 µM,10.2,0.45 µM
"Clc1ccc(C2CN(c3nccc(-c4nccc(C#Cc5ccc6[nH]ncc6c5)n4)n3)C2)cc1 [Ex. 57, 5-((2′-(3-(4-Chlorophenyl)azetidin-1-yl)-[2,4′-bipyrimidin]-4-yl)ethynyl)-1H-indazole]",6.7 µM,30.5,0.22 µM
"CN(C)CCOc1ccc2c(c1)CN(c1nccc(-c3cccc(C#Cc4ccc5[nH]ncc5c4)n3)n1)C2 [Ex. 22, 2-((2-(4-(6-((1H-Indazol-5-yl)ethynyl)pyridin-2-yl)pyrimidin-2-yl)isoindolin-5-yl)oxy)-N,N-dimethylethanamine]",> 30 µM,>20,1.5 µM
"COc1ccc2c(c1)CN(c1nccc(-c3nccc(C#Cc4cc(F)c5[nH]ncc5c4)n3)n1)C2 [Ex. 6, 7-Fluoro-5-((2′-(5-methoxyisoindolin-2-yl)-[2,4′-bipyrimidin]-4-yl)ethynyl)-1H-indazole]",29 µM,2417,0.012 µM
"COCCOc1cc2c(cn1)CN(c1nccc(-c3nccc(C#Cc4ccc5[nH]ncc5c4)n3)n1)C2 [Ex. 37, 5-((2′-(6-(2-Methoxyethoxy)-1,3-dihydro-2H-pyrrolo[3,4-c]pyridin-2-yl)-[2,4′-bipyrimidin]-4-yl)ethynyl)-1H-indazole]",5.7 µM,51.8,0.11 µM
"COc1ccc2c(c1)CN(c1nccc(-c3nccc(C#Cc4ccc(C(=O)O)cc4)n3)n1)C2 [Ex. 10, 4-((2′-(5-Methoxyisoindolin-2-yl)-[2,4′-bipyrimidin]-4-yl)ethynyl)benzoic acid]",> 30 µM,,> 30 µM
"Fc1ccc2c(c1)CN(c1ccnc(-c3ccnc(C#Cc4ccc5[nH]ncc5c4)n3)n1)C2 [Ex. 34, 5-((4-(5-Fluoroisoindolin-2-yl)-[2,4′-bipyrimidin]-2′-yl)ethynyl)-1H-indazole]",0.089 µM,2.87,0.031 µM
"COc1ccc2c(c1)CN(c1nccc(-c3nccc(C#Cc4ccc5c(c4)CNC5=O)n3)n1)C2 [Ex. 7, 5-((2′-(5-Methoxyisoindolin-2-yl)-[2,4′-bipyrimidin]-4-yl)ethynyl)isoindolin-1-one]",> 30 µM,,> 30 µM
"COc1ccc2c(c1)CN(c1nccc(-c3cc(F)cc(C#Cc4ccc5[nH]ncc5c4)c3)n1)C2 [Ex. 24, 5-((3-Fluoro-5-(2-(5-methoxyisoindolin-2-yl)pyrimidin-4-yl)phenyl)ethynyl)-1H-indazole]",> 30 µM,,> 30 µM
"CN(C)CCOc1ccc2c(c1)CN(c1nccc(-c3cc(F)cc(C#Cc4ccc5[nH]ncc5c4)c3)n1)C2 [Ex. 28, 2-((2-(4-(3-((1H-Indazol-5-yl)ethynyl)-5-fluorophenyl)pyrimidin-2-yl)isoindolin-5-yl)oxy)-N,N-dimethylethanamine]",> 30 µM,,> 30 µM
"C(#Cc1ccnc(-c2ccnc(N3CCN(c4ncc[nH]4)CC3)n2)n1)c1ccc2[nH]ncc2c1 [Ex. 58, 5-((2′-(4-(1H-Imidazol-2-yl)piperazin-1-yl)-[2,4′-bipyrimidin]-4-yl)ethynyl)-1H-indazole]",1.6 µM,5,0.32 µM
"CC1CN(c2ccc3c(c2)CN(c2nccc(-c4nccc(C#Cc5ccc6[nH]ncc6c5)n4)n2)C3)CCO1 (stereo not drawn) [Ex. 41, 4-(2-(4-((1H-Indazol-5-yl)ethynyl)-[2,4′-bipyrimidin]-2′-yl)isoindolin-5-yl)-2-methylmorpholine]",1.1 µM,45.8,0.024 µM
"Oc1ccc(N2CCN(c3nccc(-c4nccc(C#Cc5ccc6[nH]ncc6c5)n4)n3)CC2)cc1 [Ex. 62, 4-(4-(4-((1H-Indazol-5-yl)ethynyl)-[2,4′-bipyrimidin]-2′-yl)piperazin-1-yl)phenol]",13 µM,118.2,0.11 µM
"COc1ccc2c(c1)CN(c1nccc(-c3nccc(C#Cc4ccc5[nH]ncc5c4)n3)n1)C2 [Ex. 3, 5-((2′-(5-Methoxyisoindolin-2-yl)-[2,4′-bipyrimidin]-4-yl)ethynyl)-1H-indazole]",0.82 µM,119,0.0069 µM
"Fc1ccc(C2CCN(c3nccc(-c4nccc(C#Cc5ccc6[nH]ncc6c5)n4)n3)CC2)cc1 [Ex. 56, 5-((2′-(4-(4-Fluorophenyl)piperidin-1-yl)-[2,4′-bipyrimidin]-4-yl)ethynyl)-1H-indazole]",26 µM,35.6,0.73 µM
"CN(C)C(=O)COc1ccc2c(c1)CN(c1nccc(-c3nccc(C#Cc4ccc5[nH]ncc5c4)n3)n1)C2 [Ex. 43, 2-((2-(4-((1H-Indazol-5-yl)ethynyl)-[2,4′-bipyrimidin]-2′-yl)isoindolin-5-yl)oxy)-N,N-dimethylacetamide]",> 30 µM,>273,0.11 µM
"COCCOc1ccc2c(c1)CN(c1nccc(-c3nccc(C#Cc4ccc5[nH]ncc5c4)n3)n1)C2 [Ex. 47, 5-((2′-(5-(2-Methoxyethoxy)isoindolin-2-yl)-[2,4′-bipyrimidin]-4-yl)ethynyl)-1H-indazole]",0.16 µM,51.6,0.0031 µM
"Fc1ccc2c(c1)CN(c1nccc(-c3cccc(C#Cc4ccc5[nH]ncc5c4)n3)n1)C2 [Ex. 20, 5-((6-(2-(5-Fluoroisoindolin-2-yl)pyrimidin-4-yl)pyridin-2-yl)ethynyl)-1H-indazole]",> 30 µM,>5.4,5.5 µM
"COC(=O)c1ccc(C2CN(c3nccc(-c4nccc(C#Cc5ccc6[nH]ncc6c5)n4)n3)C2)cc1 [Ex. 49, Methyl 4-(1-(4-((1H-indazol-5-yl)ethynyl)-[2,4′-bipyrimidin]-2′-yl)azetidin-3-yl)benzoate trifluoroacetate]",> 30 µM,>120,0.25 µM
"COC(=O)c1ccc(C#Cc2ccnc(-c3ccnc(N4Cc5ccc(OC)cc5C4)n3)n2)cc1 [Ex. 8, Methyl 4-((2′-(5-methoxyisoindolin-2-yl)-[2,4′-bipyrimidin]-4-yl)ethynyl)benzoate]",> 30 µM,,> 30 µM
"C(#Cc1ccnc(-c2ccnc(N3Cc4ccc(OCCN5CCOCC5)cc4C3)n2)n1)c1ccc2[nH]ncc2c1 [Ex. 42, 4-(2-((2-(4-((1H-Indazol-5-yl)ethynyl)-[2,4′-bipyrimidin]-2′-yl)isoindolin-5-yl)oxy)ethyl)morpholine]",0.64 µM,7.71,0.083 µM
